In patent US8440710B2, “HSL inhibitors useful in the treatment of diabetes” (Hoffmann-La Roche Inc., priority 2009, dated 2013):
pIC50: −log10 of the molar value.

Target: T1, human HSL (Homo sapiens, UniProt Q05469)
T1 construct: generate a full length human HSL ORF with a 3′-His6 tag; made in house; host or cells: High 5 insect cells (baculovirus, pFast-BAC)
T1 sequence (Q05469 1-1076): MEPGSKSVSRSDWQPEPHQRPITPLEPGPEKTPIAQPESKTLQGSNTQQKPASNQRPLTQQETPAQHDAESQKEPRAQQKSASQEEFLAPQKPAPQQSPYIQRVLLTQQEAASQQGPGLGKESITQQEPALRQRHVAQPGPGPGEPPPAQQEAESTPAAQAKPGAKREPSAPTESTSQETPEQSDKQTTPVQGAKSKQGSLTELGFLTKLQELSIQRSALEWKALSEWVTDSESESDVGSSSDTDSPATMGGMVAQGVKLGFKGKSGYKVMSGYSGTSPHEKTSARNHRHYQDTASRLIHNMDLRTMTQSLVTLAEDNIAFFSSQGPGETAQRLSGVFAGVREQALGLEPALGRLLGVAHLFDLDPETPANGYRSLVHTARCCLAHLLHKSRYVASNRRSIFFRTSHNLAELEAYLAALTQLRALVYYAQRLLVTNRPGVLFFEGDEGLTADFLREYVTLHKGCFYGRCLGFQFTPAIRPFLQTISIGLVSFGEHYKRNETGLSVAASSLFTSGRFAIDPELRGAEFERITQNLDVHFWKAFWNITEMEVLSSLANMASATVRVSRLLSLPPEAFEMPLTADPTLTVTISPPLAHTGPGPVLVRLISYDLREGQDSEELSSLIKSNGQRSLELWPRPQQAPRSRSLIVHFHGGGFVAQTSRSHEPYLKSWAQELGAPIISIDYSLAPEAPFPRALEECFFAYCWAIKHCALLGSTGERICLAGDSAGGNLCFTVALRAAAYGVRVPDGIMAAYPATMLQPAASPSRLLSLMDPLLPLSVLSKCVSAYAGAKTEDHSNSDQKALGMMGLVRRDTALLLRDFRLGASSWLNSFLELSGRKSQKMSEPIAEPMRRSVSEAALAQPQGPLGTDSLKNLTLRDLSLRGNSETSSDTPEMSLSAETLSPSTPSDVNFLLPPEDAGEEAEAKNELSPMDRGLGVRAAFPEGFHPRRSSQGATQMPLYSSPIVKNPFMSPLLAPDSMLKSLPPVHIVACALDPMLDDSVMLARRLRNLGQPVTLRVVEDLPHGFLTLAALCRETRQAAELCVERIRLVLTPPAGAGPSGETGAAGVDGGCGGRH
Assay: Human Hormone-Sensitive Lipase (HSL) enzyme inhibition assay (colorimetric, DMPT substrate)
Format: biochemical
Conditions: human full length HSL-His6, 2,3-dimercapto-1-propanol tributyrate substrate, 37° C. 20 minutes, absorbance at 405 nm; read-out: HSL hum IC50
Procedure, shortened: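 Full-length human HSL with C-terminal His6, expressed in baculovirus-infected High 5 cells and Ni-NTA purified, was added (15 ug/ml stock) to 1.5 mM DMPT in 100 mM MOPS pH 7.2, 0.2 mg/ml fatty acid-free BSA containing compound. After 20 min at 37 °C, DTNB with SDS/Triton X-100 was added; A405 read after 15 min at RT.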

CCC[C@]1(O)CC[C@]2(CCN(c3ccc(CCOC)cc3)C2=O)CC1 [Example 122, (5α,8α)-8-Hydroxy-2-[4-(2-methoxy-ethyl)-phenyl]-8-propyl-2-aza-spiro[4.5]decan-1-one]
pIC50: 7.30

COCCc1ccc(N2CC[C@]3(CC[C@@](O)(C(F)(F)F)CC3)C2=O)cc1 [Example 123, (5α,8α)-8-Hydroxy-2-[4-(2-methoxy-ethyl)-phenyl]-8-trifluoromethyl-2-aza-spiro[4.5]decan-1-one]
pIC50: 6.38

COCCc1ccc(N2CC[C@]3(CC[C@@](O)(CC(C)C)CC3)C2=O)cc1 [Example 124, (5α,8α)-8-Hydroxy-8-isobutyl-2-[4-(2-methoxy-ethyl)-phenyl]-2-aza-spiro[4.5]decan-1-one]
pIC50: 7.70

COCCc1ccc(N2CC[C@]3(CC[C@](O)(CC(C)C)CC3)C2=O)cc1 [Example 125, (5α,8β)-8-Hydroxy-8-isobutyl-2-[4-(2-methoxy-ethyl)-phenyl]-2-aza-spiro[4.5]decan-1-one]
pIC50: 5.74

COCCc1ccc(N2CC[C@]3(CC[C@@](O)(CC(C)(C)C)CC3)C2=O)cc1 [Example 126, (5α,8α)-8-(2,2-Dimethyl-propyl)-8-hydroxy-2-[4-(2-methoxy-ethyl)-phenyl]-2-aza-spiro[4.5]decan-1-one]
pIC50: 8.00

C=C(C)[C@]1(O)CC[C@]2(CCN(c3ccc(CCOC)cc3)C2=O)CC1 [Example 127, (5α,8α)-8-Hydroxy-8-isopropenyl-2-[4-(2-methoxy-ethyl)-phenyl]-2-aza-spiro[4.5]decan-1-one]
pIC50: 6.92

COCCc1ccc(N2CC[C@]3(CC[C@@](O)(C(C)C)CC3)C2=O)cc1 [Example 128, (5α,8α)-8-Hydroxy-8-isopropyl-2-[4-(2-methoxy-ethyl)-phenyl]-2-aza-spiro[4.5]decan-1-one]
pIC50: 7.30

CCCC[C@]1(O)CC[C@]2(CCN(c3ccc(CCOC)cc3)C2=O)CC1 [Example 129, (5α,8α)-8-Butyl-8-hydroxy-2-[4-(2-methoxy-ethyl)-phenyl]-2-aza-spiro[4.5]decan-1-one]
pIC50: 7.70

COCCCc1ccc(N2CC[C@]3(CC[C@@](O)(C(C)C)CC3)C2=O)cc1 [Example 130, (5α,8α)-8-Hydroxy-8-isopropyl-2-(4-(3-methoxypropyl)phenyl)-2-aza-spiro[4.5]decan-1-one]
pIC50: 7.30

CC[C@]1(O)CC[C@]2(CCN(c3ccc(C(C)(C)COC)cc3)C2=O)CC1 [Example 131, (5α,8α)-8-Ethyl-8-hydroxy-2-[4-(2-methoxy-1,1-dimethyl-ethyl)-phenyl]-2-aza-spiro[4.5]decan-1-one]
pIC50: 7.05

CCC[C@]1(O)CC[C@]2(CCN(c3ccc(C(C)(C)COC)cc3)C2=O)CC1 [Example 132, (5α,8α)-8-Hydroxy-2-[4-(2-methoxy-1,1-dimethyl-ethyl)-phenyl]-8-propyl-2-aza-spiro[4.5]decan-1-one]
pIC50: 7.70

CCC[C@]1(O)CC[C@]2(CCN(c3ccc([C@H](O)C(F)(F)F)cc3)C2=O)CC1 [Example 133a, (5α,8α)-8-Hydroxy-8-propyl-2-[4-((S)-2,2,2-trifluoro-1-hydroxy-ethyl)-phenyl]-2-aza-spiro[4.5]decan-1-one]
pIC50: 7.30

CCC[C@]1(O)CC[C@]2(CCN(c3ccc([C@@H](O)C(F)(F)F)cc3)C2=O)CC1 [Example 133b, (5α,8α)-8-Hydroxy-8-propyl-2-[4-((R)-2,2,2-trifluoro-1-hydroxy-ethyl)-phenyl]-2-aza-spiro[4.5]decan-1-one]
pIC50: 7.52

CCC[C@]1(O)CC[C@@]2(CCN(c3ccc(C(O)C(F)(F)F)cc3)C2=O)CC1 (stereo partly drawn) [Example 134, (5α,8β)-8-Hydroxy-8-propyl-2-(4-(2,2,2-trifluoro-1-hydroxyethyl)phenyl)-2-aza-spiro[4.5]decan-1-one]
pIC50: 5.93

CC(C)[C@]1(O)CC[C@]2(CCN(c3ccc([C@@H](O)C(F)(F)F)cc3)C2=O)CC1 [Example 135, (5α,8α)-8-Hydroxy-8-isopropyl-2-[4-((R)-2,2,2-trifluoro-1-hydroxy-ethyl)-phenyl]-2-aza-spiro[4.5]decan-1-one]
pIC50: 7.70

CC(C)[C@]1(O)CC[C@@]2(CCN(c3ccc([C@@H](O)C(F)(F)F)cc3)C2=O)CC1 [Example 136, (5α,8β)-8-Hydroxy-8-isopropyl-2-(4-((R)-2,2,2-trifluoro-1-hydroxy-ethyl)-phenyl)-2-aza-spiro[4.5]decan-1-one]
pIC50: 5.56

CO[C@H](c1ccc(N2CC[C@]3(CC[C@@](O)(C(C)C)CC3)C2=O)cc1)C(F)(F)F [Example 137, (5α,8α)-8-Hydroxy-8-isopropyl-2-(4-((R)-2,2,2-trifluoro-1-methoxyethyl)phenyl)-2-aza-spiro[4.5]decan-1-one]
pIC50: 8.00

COC[C@]1(O)CC[C@]2(CCN(c3ccc([C@@H](O)C(F)(F)F)cc3)C2=O)CC1 [Example 138, (5α,8α)-8-Hydroxy-8-(methoxymethyl)-2-(4-((R)-2,2,2-trifluoro-1-hydroxyethyl)phenyl)-2-aza-spiro[4.5]decan-1-one]
pIC50: 7.00

COC[C@]1(O)CC[C@]2(CCN(c3ccc([C@@H](OC)C(F)(F)F)cc3)C2=O)CC1 [Example 139, (5α,8α)-8-Hydroxy-8-(methoxymethyl)-2-(4-((R)-2,2,2-trifluoro-1-methoxyethyl)phenyl)-2-aza-spiro[4.5]decan-1-one]
pIC50: 7.40

CCO[C@H](c1ccc(N2CC[C@]3(CC[C@@](O)(COC)CC3)C2=O)cc1)C(F)(F)F [Example 140, (5α,8α)-2-(4-((R)-1-Ethoxy-2,2,2-trifluoroethyl)phenyl)-8-hydroxy-8-(methoxymethyl)-2-aza-spiro[4.5]decan-1-one]
pIC50: 6.80

CCCO[C@H](c1ccc(N2CC[C@]3(CC[C@@](O)(COC)CC3)C2=O)cc1)C(F)(F)F [Example 141, (5α,8α)-8-Hydroxy-8-(methoxymethyl)-2-(4-((R)-2,2,2-trifluoro-1-propoxyethyl)phenyl)-2-aza-spiro[4.5]decan-1-one]
pIC50: 7.52

C=CC[C@]1(O)CC[C@]2(CCN(c3ccc(O[C@H](C)C(F)(F)F)cc3)C2=O)CC1 [Example 142, (5α,8α)-8-Allyl-8-hydroxy-2-[4-((R)-2,2,2-trifluoro-1-methyl-ethoxy)-phenyl]-2-aza-spiro[4.5]decan-1-one]
pIC50: 8.00

C=CC[C@]1(O)CC[C@@]2(CCN(c3ccc(O[C@H](C)C(F)(F)F)cc3)C2=O)CC1 [Example 143, (5α,8β)-8-Allyl-8-hydroxy-2-[4-((R)-2,2,2-trifluoro-1-methyl-ethoxy)-phenyl]-2-aza-spiro[4.5]decan-1-one]
pIC50: 5.83

C[C@@H](Oc1ccc(N2CC[C@]3(CC[C@@](O)(COCc4ccccc4)CC3)C2=O)cc1)C(F)(F)F [Example 144, (5α,8α)-8-(Benzyloxymethyl)-8-hydroxy-2-[4-((R)-2,2,2-trifluoro-1-methyl-ethoxy)-phenyl]-2-aza-spiro[4.5]decan-1-one]
pIC50: 8.00

C[C@@H](Oc1ccc(N2CC[C@]3(CC[C@@](O)(CO)CC3)C2=O)cc1)C(F)(F)F [Example 145, (5α,8α)-8-Hydroxy-8-(hydroxymethyl)-2-[4-((R)-2,2,2-trifluoro-1-methyl-ethoxy)-phenyl]-2-aza-spiro[4.5]decan-1-one]
pIC50: 6.41

COC[C@]1(O)CC[C@]2(CCN(c3ccc(O[C@@H](C)C(F)(F)F)cc3)C2=O)CC1 [Example 146, (5α,8α)-8-Hydroxy-8-methoxymethyl-2-[4-((S)-2,2,2-trifluoro-1-methyl-ethoxy)-phenyl]-2-aza-spiro[4.5]decan-1-one]
pIC50: 7.70

COC[C@]1(O)CC[C@]2(CCN(c3ccc(O[C@H](C)C(F)(F)F)cc3)C2=O)CC1 [Example 147, (5α,8α)-8-Hydroxy-8-(methoxymethyl)-2-[4-((R)-2,2,2-trifluoro-1-methyl-ethoxy)-phenyl]-2-aza-spiro[4.5]decan-1-one]
pIC50: 7.52

CC(C)[C@]1(O)CC[C@]2(CCN(c3ccc(O[C@@H](C)C(F)(F)F)nc3)C2=O)CC1 [Example 148, (5α,8α)-8-Hydroxy-8-isopropyl-2-[6-((S)-2,2,2-trifluoro-1-methyl-ethoxy)pyridin-3-yl]-2-aza-spiro[4.5]decan-1-one]
pIC50: 7.70
